Assays:
[1] = Inhibition of Influenza B virus wild type neuraminidase
Influenza A virus = assay: Antiviral activity against Influenza A virus infected in MDCK cells after 72 hrs by yield reduction assay; format: functional, organism-based
[2] = Cytotoxicity against MDCK cells after 72 hrs by XTT assay; format: cell-based, Canis lupus familiaris; conditions: dog

| SMILES | IC50 [1] [µM] | EC50 (Influenza A virus) [µM] | CC50 at 72 h [2] [µM] |
| --- | --- | --- | --- |
| CCOC(=O)C1=C[C@@H](OC(CC)CC)[C@H](NC(C)=O)[C@@H](N)C1 [OSELTAMIVIR] | 16 | 0.03 | 321 |
| CCOC(=O)c1cn(CC)c2ccc(-n3cc(C4=CCCCC4)nn3)cc2c1=O | 22 | 0.2 | 566 |
